Source: patent publication US10576050B2, “Methods and compositions for treatment of cancer” (ONCONOVA THERAPEUTICS, INC., priority 2012, dated 2020)
Several values for one entry are separate records, joined by “and”; a condition that tells them apart may be missing. Equal entries are not always repeated.

Legend:
[1] = Phase II randomized two-arm study of oral Rigosertib (560 mg bid, intermittent or continuous) in transfusion-dependent lower risk MDS patients; settings: for median duration of treatment: FIG. 5
Experimental: Methods: This is a randomized, two-arm study of oral Rigosertib (560 mg bid) administered either intermittently (2 out of 3 weeks) or continuously. Transfusion-dependent patients received at least 4 units RBC transfusions over 8 weeks before randomization as well as transfusions and erythrocyte stimulating agents (ESAs) while on study.
The study design in low or independent transfusion-dependent MDS patients: 43 patients enrolled and randomized 1:1 in two groups. The first group was administered 560 mg capsules BID in days 1-14 of 21 day cycle. The second group was administered 560 mg capsules BID in days 1-21 of 21 day cycle. […] The protocol was amended for the […] on intermittent dosing.
In these cases 560 mg bid dosing was replaced with 560 mg am (30 min+ before breakfast) and 280 mg 2 hs+ after lunch and 30 min+ before dinner. Dysuria questionnaire (American Urological Association) was provided to all patients at baseline, 3 weeks and every 3 cycles thereafter and recommend for vigorous hydration and bicarbonate prn.
The ongoing phase II trial 09-05 is designed to evaluate oral Rigosertib as a single agent in transfusion-dependent lower risk MDS patients. This trial is a randomized, two-arm study of oral Rigosertib (560 mg bid) administered either intermittently (2 out of 3 weeks) or continuously. Transfusion-dependent patients must have received at least 4 units of RBC transfusions over 8 weeks before randomization and can receive transfusions and erythrocyte stimulating agents (ESAs) while on study.

[2] = Dose escalation of oral Rigosertib twice daily in patients with refractory solid tumors; type: in vivo, human; settings: BID continuously, 25 patients
Experimental: Twenty-five patients with histologically confirmed solid tumors refractory to standard therapy were given escalating doses of oral Rigosertib twice daily. Doses were increased according to a schedule until the appearance of grade 2 or grade 3/4 toxicities. The maximum tolerated dose (MTD) of oral Rigosertib administered twice daily continuously is 560 mg BID. Dysuria was identified as a potential dose-limiting adverse event and a reported toxicity. […] The antitumor activity in this study supported past observations of Rigosertib efficacy in other solid tumor clinical trials. Pharmacokinetic (PK) data reveal plasma levels with oral Rigosertib were above the predicted pharmacodynamically active levels. Final safety and efficacy results, plasma and urinary PK relationships, and mutational analyses from archival tissue are presented

[3] = 34 patients dosed intermittently
[4] = individual transfusion responders

COc1cc(OC)c(/C=C/S(=O)(=O)Cc2ccc(OC)c(NCC(=O)[O-])c2)c(OC)c1.[Na+] [Rigosertib, sodium (E)-2-{2-methoxy-5-[(2′,4′,6′-trimethoxystyrylsulfonyl)methyl]phenylamino}acetate]
overall tolerability of oral Rigosertib ([1]; 560 mg bid): well tolerated | patients achieving TI, intent-to-treat analysis ([1]; 14/39 patients, intermittent dosing): 36% | patients achieving transfusion independence ([1]; 15 patients treated with intermittent dosing for at least 8 weeks): 47% | median duration of transfusion independence ([1]; 15 responders, intermittent dosing (conclusion)): 17 weeks | patients achieving TI, intent-to-treat analysis ([1]; 17/48 patients (conclusion)): 35% | patients with transfusion independence ([1]; 26 evaluable patients (8 wks+ treatment), intermittent 560 mg bid, FIG. 9): 50% and 46% | Abdominal Pain/discomfort, GRADE 2 incidents [1, 3]: 1 | Abdominal Pain/discomfort, GRADE 3 incidents [1, 3]: 0 | Abdominal Pain/discomfort, TOTAL % [1, 3]: 3% | Diarrhea, GRADE 2 incidents [1, 3]: 1 | Diarrhea, GRADE 3 incidents [1, 3]: 0 | Diarrhea, TOTAL % [1, 3]: 3% | Fatigue, GRADE 2 incidents [1, 3]: 5 | Fatigue, GRADE 3 incidents [1, 3]: 0 | Fatigue, TOTAL % [1, 3]: 15% | Hematuria or Cytitis, GRADE 2 incidents [1, 3]: 1 | Hematuria or Cytitis, GRADE 3 incidents [1, 3]: 5 | Hematuria or Cytitis, TOTAL % [1, 3]: 18% | Insomnia, GRADE 2 incidents [1, 3]: 1 | Insomnia, GRADE 3 incidents [1, 3]: 0 | Insomnia, TOTAL % [1, 3]: 3% | Nausea, GRADE 2 incidents [1, 3]: 3 | Nausea, GRADE 3 incidents [1, 3]: 0 | Nausea, TOTAL % [1, 3]: 9% | Neutropenia, GRADE 2 incidents [1, 3]: 2 | Neutropenia, GRADE 3 incidents [1, 3]: 2 | Neutropenia, TOTAL % [1, 3]: 6% | Urinary urgency, GRADE 2 incidents [1, 3]: 12 | Urinary urgency, GRADE 3 incidents [1, 3]: 0 | Urinary urgency, SAE [1, 3]: 1 | Urinary urgency, TOTAL % [1, 3]: 35% | patients achieving transfusion independence ([1]; 36 patients on intermittent dosing treated for at least 8 consecutive weeks): 39% | Responders (overall transfusion response) ([1]; Continuous regimen): 2 | Responders (overall transfusion response) ([1]; Intermittent regimen): 13 | Responders (overall transfusion response) ([1]; Total): 15 | patients with grade 2+ urinary side effects ([1]; continuous dosing arm): 5 of 9 | median duration of treatment ([1]; continuous dosing, 9 patients): 24 weeks | patients achieving transfusion independence ([1]; continuous dosing, nine patients (8 treated for at least 8 weeks)): two | patients progressed ([1]; four evaluable RAEB patients): one | patients achieving bone marrow complete response according to IWG 2006 criteria ([1]; four evaluable RAEB patients, one unconfirmed): three | Response (bone marrow, IWG 2006 criteria) ([1]; individual RAEB-1/RAEB-2 patients): BMCR (2×) and BMCRu | Response week Duration (transfusion independence) [1, 4]: ≥ 48 weeks and ≥ 37 weeks and 17 weeks and 37+ weeks and 9 weeks and 28 weeks and 30 weeks and 8 weeks and 17+ weeks and 12 weeks and 14+ weeks and 48+ weeks | Response week Onset (transfusion response) [1, 4]: 1 weeks (8×) and 24 weeks and 14 weeks and 4 weeks and 19 weeks and 13 weeks | patients with urinary grade 2+ toxicity ([1]; intermittent dosing with option of dose interruption/reduction): 4/20 | median duration of treatment ([1]; intermittent dosing, 34 patients): not reached | patients achieving transfusion independence ([1]; intermittent dosing, at least 8 consecutive weeks, 15 patients (conclusion)): 45% | interaction between Rigosertib and ESA ([1]; lower-risk transfusion dependent MDS, concomitant ESA): synergy | patients developing grade 2 urinary toxicity ([1]; twelve patients, 560 mg AM and 280 mg PM, median 6 weeks): one | Bone marrow blast values ([1]; week 15 follow-up, individual RAEB-1/RAEB-2 patients): 4% and 10% and 77% and 3% | Bone marrow blast values ([1]; week 30 follow-up, individual RAEB-1/RAEB-2 patients): 4% and 9% | Bone marrow blast values ([1]; week 45 follow-up, individual RAEB-1/RAEB-2 patients): 5% | Bone marrow blast values ([1]; week 60 follow-up, individual RAEB-1/RAEB-2 patients): 5% | maximum tolerated dose (MTD) [2]: 560 mg
